Laboratory results published in US8956999B2, “Herbicides” (Syngenta Limited, priority 2007, dated 2015).

Experiments:
Assay type in all cases: in vivo
[1] = tested on: Alopecurus myosuroides (ALOMY); assay: Example B pre-emergence herbicidal test, glasshouse; details: 312 h, rate 250 g/ha, evaluated after 13 days, 100=total damage to plant, 0=no damage to plant
Procedure: (§1) Seeds of a variety of test species were sown in standard soil in pots. After cultivation for one day (pre-emergence) or after 8 days cultivation (post-emergence) under controlled conditions in a glasshouse (at 24/16° C., day/night; 14 hours light; 65% humidity), the plants were sprayed with an aqueous spray solution derived from the formulation of the technical active ingredient in acetone/water (50:50) solution containing 0.5% Tween 20 (polyoxyethelyene sorbitan monolaurate, CAS RN 9005-64-5). The test plants were then grown in a glasshouse under controlled conditions in a glasshouse (at 24/16° C., day/night; 14 hours light; 65% humidity) and watered twice daily. After 13 days for pre and post-emergence, the test was evaluated (100=total damage to plant; 0=no damage to plant). Test Plants: Alopecurus myosuroides (ALOMY), Avena fatua (AVEFA), Setaria faberi (SETFA), Echinochloa crus-galli (ECHCG), Solanum nigrum (SOLNI) and Amaranthus retoflexus (AMARE)

[2] = tested on: Amaranthus retoflexus (AMARE); assay: as above; details: Amaranthus retroflexus, 312 h, rate 250 g/ha, evaluated after 13 days, 100=total damage to plant, 0=no damage to plant
Procedure: as §1

Avena fatua (AVEFA) [3] = assay: as above; details: 312 h, rate 250 g/ha, evaluated after 13 days, 100=total damage to plant, 0=no damage to plant
Procedure: as §1

[4] = tested on: Echinochloa crus-galli (ECHCG); assay: as above; details: Echinochloa crus-galli, 312 h, rate 250 g/ha, evaluated after 13 days, 100=total damage to plant, 0=no damage to plant, read-out: Pre-Emergence Activity ECHGG
Procedure: as §1

Setaria faberi (SETFA) [5] = assay: as above; details: Setaria faberi, 312 h, rate 250 g/ha, evaluated after 13 days, 100=total damage to plant, 0=no damage to plant, read-out: Pre-Emergence Activity SEFTA
Procedure: as §1

[6] = tested on: Alopecurus myosuroides (ALOMY); assay: Example B post-emergence herbicidal test, glasshouse; details: 312 h, rate 250 g/ha, evaluated after 13 days, read-out: Post-Emergence Activity ALOMY (100=total damage to plant; 0=no damage to plant)
Procedure: as §1

[7] = tested on: Amaranthus retoflexus (AMARE); assay: as above; details: Amaranthus retroflexus, 312 h, rate 250 g/ha, evaluated after 13 days, read-out: Post-Emergence Activity AMARE (100=total damage to plant; 0=no damage to plant)
Procedure: as §1

Avena fatua (AVEFA) [8] = assay: as above; details: 312 h, rate 250 g/ha, evaluated after 13 days, read-out: Post-Emergence Activity AVEFA (100=total damage to plant; 0=no damage to plant)
Procedure: as §1

[9] = tested on: Echinochloa crus-galli (ECHCG); assay: as above; details: 312 h, rate 250 g/ha, evaluated after 13 days, read-out: Post-Emergence Activity ECHGG (100=total damage to plant; 0=no damage to plant)
Procedure: as §1

Setaria faberi (SETFA) [10] = assay: as above; details: 312 h, rate 250 g/ha, evaluated after 13 days, read-out: Post-Emergence Activity SEFTA (100=total damage to plant; 0=no damage to plant)
Procedure: as §1

| Structure (SMILES) | pest or weed control at 250 g/ha [1] [%] | pest or weed control at 250 g/ha [2] [%] | pest or weed control at 250 g/ha (Avena fatua (AVEFA) [3]) [%] | pest or weed control at 250 g/ha [4] [%] | pest or weed control at 250 g/ha (Setaria faberi (SETFA) [5]) [%] | pest or weed control at 250 g/ha [6] [%] | pest or weed control at 250 g/ha [7] [%] | pest or weed control at 250 g/ha (Avena fatua (AVEFA) [8]) [%] | pest or weed control at 250 g/ha [9] [%] | pest or weed control at 250 g/ha (Setaria faberi (SETFA) [10]) [%] |
| --- | --- | --- | --- | --- | --- | --- | --- | --- | --- | --- |
| CCc1sc(-c2ccc(OC(F)F)cc2)nc1C1C(=O)C(C)(C)OC(C)(C)C1=O [Compound T62] | 90 | 0 | 0 | 60 | 100 | 100 | 0 | 100 | 100 | 100 |
| CC(=O)OC1=C(c2nc(-c3ccc(Br)cc3C)sc2C)C(=O)C(C)(C)OC1(C)C [Compound P6] | 90 | 0 | 80 | 70 | 100 | 100 | 0 | 90 | 100 | 100 |
| CC(=O)OC1=C(c2nc(-c3ccc(Br)cn3)sc2C)C(=O)C(C)(C)OC1(C)C [Compound P3] | 20 | 0 | 0 | 30 | 20 | 50 | 0 | 30 | 90 | 90 |
| Cc1cnc(-c2ccc(Cl)cc2)nc1C1C(=O)C(C)(C)OC(C)(C)C1=O [Compound T71, 4-[2-(4-chlorophenyl)-5-methylpyrimidin-4-yl]-2,2,6,6-tetramethylpyran-3,5-dione] | 20 | 0 | 0 | 60 | 50 | 20 | 0 | 40 | 90 | 90 |
| CCc1sc(-c2ccc(Cl)cc2F)nc1C1C(=O)C(C)(C)OC(C)(C)C1=O [Compound T47] | 70 | 20 | 90 | 70 | 90 | 100 | 0 | 100 | 100 | 100 |
| Cc1sc(-c2ccc([S+](C)[O-])cc2)nc1C1C(=O)C(C)(C)OC(C)(C)C1=O (centres unmarked) [Compound T68] | 0 | 0 | 0 | 20 | 20 | 0 | 0 | 0 | 80 | 70 |
| Cc1sc(COc2ccc(Cl)cc2)nc1C1C(=O)C(C)(C)OC(C)(C)C1=O [Compound T59] | 0 | 0 | 0 | 0 | 0 | 30 | 0 | 0 | 70 | 30 |
| Cc1cc(Br)ccc1-c1nc(C2=C(OC(=O)C3CC3)C(C)(C)OC(C)(C)C2=O)c(C)s1 [Compound P7] | 70 | 0 | 0 | 80 | 100 | 80 | 0 | 80 | 100 | 100 |
